From patent publication US20100113513A1, “QUINOLINE DERIVATIVES AS FUNGICIDES” (SYNGENTA CROP PROTECTION, INC., priority 2007, published 2010) come the findings set out here.

SMILES strings stand for the structures.

The experiment deals with Erysiphe graminis f.sp. tritici. The experiment is described as follows: Erysiphe graminis f.sp. tritici (wheat powdery mildew) wheat leaf segment test, preventive. It is filed as in vivo. The settings on record: Blumeria graminis, foliar, 96 h, wheat leaf segments, assessed four days after inoculation, read-out: control of fungal infection, Erysiphe graminis f.sp. tritici.
Consider `COC(Oc1cc(Br)c2ncc(Br)cc2c1)C(=O)NC(C)(C)C` (stereo not drawn) [12 (99), N-tert-Butyl-2-(3,8-dibromo-quinolin-6-yloxy)-2-methoxy-acetamide], for which the pest or weed control at 200 ppm was not below 60%. The result for `CCC(Oc1ccc2ncc(Br)cc2c1)C(=O)NC(C)(C)C` (stereo not drawn) [12 (154), 2-(3-bromo-quinolin-6-yloxy)-N-tert-butyl-butyramide] reads not below 60%; that for `CCOC(Oc1ccc2ncc(Br)cc2c1)C(=O)NC(C)(C)C` (stereo not drawn) [12 (156), 2-(3-Bromo-quinolin-6-yloxy)-N-tert-butyl-2-ethoxy-acetamide], not below 60%. For `COCC(C)(C)NC(=O)C(OC)Oc1ccc2ncc(Br)cc2c1` (stereo not drawn) [47 (155), 2-(3-Bromo-quinolin-6-yloxy)-2-methoxy-N-(2-methoxy-1,1-dimethyl-ethyl)-acetamide], the pest or weed control at 200 ppm is not below 60%. The value for `CCC(Oc1cc(C)c2ncc(Br)cc2c1)C(=O)NC(C)(C)COC` (stereo not drawn) [47 (90), 2-(3-Bromo-8-methyl-quinolin-6-yloxy)-N-(2-methoxy-1,1-dimethyl-ethyl)-butyramide] was not below 60%; that for `COCC(C)(C#N)NC(=O)C(OC)Oc1ccc2ncc(Br)cc2c1` (stereo not drawn) [52 (155), 2-(3-Bromo-quinolin-6-yloxy)-N-(1-cyano-2-methoxy-1-methyl-ethyl)-2-methoxy-acetamide] was not below 60%. The result for `CCOC(Oc1ccc2ncc(Br)cc2c1)C(=O)NC(C)(C)COC` (stereo not drawn) [47 (156), 2-(3-Bromo-quinolin-6-yloxy)-2-ethoxy-N-(2-methoxy-1,1-dimethyl-ethyl)-acetamide] reads not below 60%. The value for `CCC(Oc1ccc2ncc(Br)cc2c1)C(=O)NC(C)(C#N)COC` (stereo not drawn) [52 (154), 2-(3-Bromo-quinolin-6-yloxy)-N-(1-cyano-2-methoxy-1-methyl-ethyl)-butyramide] was not below 60%.

For `COC(Oc1ccc2ncc(Br)cc2c1)C(=O)NC(C)(C)C` (stereo not drawn) [12 (155), 2-(3-bromo-quinolin-6-yloxy)-N-tert-butyl-2-methoxy-acetamide], the pest or weed control at 200 ppm is not below 60%.
